Patent publication US6861442B1, “PYK2 and inflammation” (Sugen, Inc., priority 1998, dated 2005)

Experiments:
P388D1 cells = assay: TNF-α secretion by P388D1 macrophage clones measured by ELISA; format: cell-based, murine; details: for Secretion of TNF-α caused by the stimulus: 1 μg/mL, overnight (18 hours), P388D1 doxycycline inducible clones; for Secretion of TNF-α: P388D1 cells stimulated with LPS or PMA
Excerpt: FIGS. 8a, 8b, 8c, and 8d compare the secretion of TNF-α by wild-type and kinase mutant P388D1 cells in response to activators of macrophage function or PYK2 activity. FIGS. 8a and 8b show the effect of LPS in the presence and absence of DOX on TNF-α secretion from kinase mutant (dominant negative; FIG. 8a) and wild-type (FIG. 8b) cells. FIGS. 8c and 8d show the effect of PMA in the presence and absence of DOX on TNF-α secretion from kinase mutant (FIG. 8c) and wild-type (FIG. 8d) cells. Induction of P388D1 cells in the presence of doxicycline was carried out for 48 hours followed by stimulation with LPS (1 μg/mL) or PMA (1 μg/mL) for 18 hrs. Secreted TNF-α was measured by ELISA.
TNF secretion in response to stimulation with either LPS (1 μg/mL) or PMA (1 μg/mL) by the doxycycline inducible clones is shown in FIG. 8. Induction in the presence of doxycycline was carried out for 48 hours followed by stimulation with LPS or PMA overnight (18 hours). […] Secreted TNF-α was measured by ELISA. […] Secretion of TNF-α was inhibited by herbimycin A and genestein, which are non-specific inhibitors of tyrosine phosphorylation.

wild type macrophages = assay: Cytoplasmic calcium release in single Fura-2 loaded adherent macrophages; format: cell-based, mice; details: wild type macrophages attached to cover slips
Protocol: Cells grown in 6-well plates were labeled for 24 h in medium-199 containing myo-[^3H]inositol(20 μCi/ml). The cells were washed once with PBS and pre-incubated for 10 min. in 2 ml of PBS containing 10 mM LiCl (PH 7.4) at 37° C. prior to the addition of chemokines. The cells were extracted with methanol/1M HCl/chloroform 1:1:1 and analyzed by high-performance liquid chromatography (HPLC) as described (Falasca, et al. (1998) EMBO J. 17:414-422). [Ca^2+] i measurements were performed in single macrophages as described (Falasca, et al. 1995).
Calcium plays an important role in the control of a variety of intracellular events as well as in the control of cell shape, and cell movement (Lawson and Maxfield, 1995). We therefore measured cytoplasmic calcium release in single cells in response to MIP1α stimulation by using quantitative fluorescence microscopy of Fura-2 loaded cells. […] Defect in calcium release may contribute towards the failure of the cells to detach at the rear end leading to impairment in cell migration since proteins that regulate the degradation of focal contact components and disassembly of F-actin require calcium for their action (Witke, et al. (1995) Cell 81:41-51; Kulkarni, et al. (1999) J. Biol Chem. 274:21265-21275).

Pyk2 = target: T1, Pyk2 (Mus musculus, UniProt Q9QVP9); assay: Tyrosine phosphorylation of Pyk2 in response to LPS stimulation in P388D1 cells (anti-Pyk2 IP, anti-phosphotyrosine 4G10 western blot); format: cell-based, murine; details: P388D1 cells pre-treated 4 hours, then stimulated with LPS for 30 minutes
T1 construct: abrogates the function of the endogenous wild-type PYK2 protein in these macrophages; endogenous in cells; host or cells: P388D1 murine macrophage cell line
Protocol: FIGS. 6a and 6b show the tyrosine phosphorylation of PYK2 in macrophage cell lines in response to LPS (lipopolysaccharide) and tyrosine kinase inhibitors. Cells were either starved overnight in 0.5% serum and stimulated with LPS for variable time intervals (FIG. 6a), or were pre-treated with either herbimycin A or genestein for 4 hours and then stimulated with LPS for 30 minutes (FIG. 6b). After stimulation, cells were washed, lysed, and immunoprecipitated with anti-PYK2 antibody. Immunoprecipitates (IP) were then analyzed by western blotting.
Cells were lysed in lysis buffer containing 50 mM N-2-hydroxyethylpiperazine-N′-2-ethanesulferic acid (HEPES pH 7.5), 150 mM NaCl, 10% glycerol, 1% Triton X-100, 1.5 mM MgCl2, 1 mM ethyleneglycol-bis (β-aminoethyl ether)-N,N,N′N′-tetraacetic acid (EGTA), 10 μg leupeptin per mL, 10 μg aprotinin per mL, 1 mM phenylmethylsulfonyl fluoride (PMSF), 200 μM sodium orthovanadate and 100 mM sodium fluoride. […] The washed immunoprecipitates were incubated for 5 min with gel sample buffer at 100° C. and analyzed by sodium dodecyl sulfate polyacrylamide gel electrophoresis (SDS-PAGE). […]
Tyrosine phosphorylation of Pyk2 in response to LPS stimulation was measured in P388D1 cells. […] Immuno-precipitates were then analyzed by western blotting. Tyrosine phosphorylated bands were detected with the anti-phosphotyrosine antibody 4G10. […]

T1 sequence (Q9QVP9 whole entry): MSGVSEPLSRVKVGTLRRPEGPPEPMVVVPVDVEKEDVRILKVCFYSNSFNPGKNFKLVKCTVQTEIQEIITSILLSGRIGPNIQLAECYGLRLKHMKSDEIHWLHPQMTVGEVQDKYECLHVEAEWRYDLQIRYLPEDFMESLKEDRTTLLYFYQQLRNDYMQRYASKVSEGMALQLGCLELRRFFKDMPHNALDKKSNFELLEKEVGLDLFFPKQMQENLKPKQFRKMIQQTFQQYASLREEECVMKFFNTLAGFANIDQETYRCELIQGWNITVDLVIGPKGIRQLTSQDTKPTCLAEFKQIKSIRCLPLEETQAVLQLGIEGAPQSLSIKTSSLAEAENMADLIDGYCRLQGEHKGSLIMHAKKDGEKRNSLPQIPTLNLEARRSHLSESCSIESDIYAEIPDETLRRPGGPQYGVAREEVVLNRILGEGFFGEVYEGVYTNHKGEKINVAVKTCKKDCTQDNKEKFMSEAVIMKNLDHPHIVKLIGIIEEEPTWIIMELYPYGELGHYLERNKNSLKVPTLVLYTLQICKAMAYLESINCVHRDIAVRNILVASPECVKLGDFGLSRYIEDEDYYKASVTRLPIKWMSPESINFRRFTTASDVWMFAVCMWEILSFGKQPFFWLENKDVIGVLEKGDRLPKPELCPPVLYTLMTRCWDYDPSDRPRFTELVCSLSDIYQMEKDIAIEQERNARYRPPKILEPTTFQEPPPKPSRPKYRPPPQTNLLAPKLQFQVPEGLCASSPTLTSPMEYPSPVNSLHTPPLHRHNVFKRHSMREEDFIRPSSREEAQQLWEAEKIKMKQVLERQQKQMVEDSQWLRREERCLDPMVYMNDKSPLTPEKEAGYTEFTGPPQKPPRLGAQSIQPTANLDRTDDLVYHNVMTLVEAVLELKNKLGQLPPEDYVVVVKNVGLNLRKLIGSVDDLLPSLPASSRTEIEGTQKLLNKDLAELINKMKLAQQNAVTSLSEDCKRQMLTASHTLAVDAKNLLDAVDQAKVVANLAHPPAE

Molecule	Secretion of TNF-α caused by the stimulus (P388D1 cells)	Maximum increase in cytoplasmic [Ca+2] concentration (wild type macrophages)	Secretion of TNF-α (P388D1 cells)	Tyrosine phosphorylation of Pyk2 (Pyk2)
lipopolysaccharide [LPS]	caused secretion of TNF-α			
MIP1α: chemokine used to stimulate macrophages		approximately 300 nM		
CCCCCCCCCCCCCC(=O)O[C@@H]1[C@@H](C)[C@@]2(O)[C@@H](C=C(CO)C[C@]3(O)C(=O)C(C)=C[C@@H]23)[C@@H]2C(C)(C)[C@]12OC(C)=O [PMA, phorbol 12-myristate 13-acetate]	caused secretion of TNF-α			
CO[C@H]1[C@@H](OC)C[C@H](C)[C@@H](OC)C2=CC(=O)C=C(NC(=O)/C(C)=C/C=C\[C@H](OC)[C@@H](OC(N)=O)/C(C)=C/[C@@H]1C)C2=O [herbimycin A]			inhibited	diminished
O=c1c(-c2ccc(O)cc2)coc2cc(O)cc(O)c12 [genestein]			inhibited	diminished
